The subject of one test is S.mutans. As to conditions: pH = 7; acid production by S.mutans.
Another test concerns plaque bacteria. Briefly: in vitro anti-plaque test involving saliva reinoculation. It counts as cell-based. The conditions noted are these: 20 minutes on plaque grown on enamel discs.

For the molecule `O=P([O-])([O-])O[C@H]1O[C@H](CO)[C@@H](O)[C@H](O)[C@H]1O.[Sn+2]` [Sn G-1-P, stannous glucose-1-phosphate], the “Concentration of Sn²⁺ in mmole to reach 100 % acid inhibition” value in the test on S.mutans amounted to 0.2 mmol. In addition, the “Relative Anti-Plaque Activity (% bacteria killed vs. control growth)” value with plaque bacteria (Sn^II conc. 1188 ppm) was 32%; in the test with plaque bacteria (Sn^II conc. 3594 ppm), 96%; in the test with plaque bacteria (Sn^II conc. 6000 ppm), 98%.
With `O=P([O-])([O-])OP(=O)([O-])[O-].[Sn+2].[Sn+2]` [Sn₂P₂O₇, stannous pyrophosphate, reference compound], the “Concentration of Sn²⁺ in mmole to reach 100 % acid inhibition” value with S.mutans was 1.02 mmol. Further, in the test on plaque bacteria (Sn^II conc. 6000 ppm), the “Relative Anti-Plaque Activity (% bacteria killed vs. control growth)” value turned out to be 76%.
In the case of stannous glucose-6-phosphate [Sn G-6-P], the “Concentration of Sn²⁺ in mmole to reach 100 % acid inhibition” value with S.mutans turned out to be 0.25 mmol. The figures for the “Relative Anti-Plaque Activity (% bacteria killed vs. control growth)” value in the test with plaque bacteria (Sn^II conc. 2406 ppm), with plaque bacteria (Sn^II conc. 3594 ppm) and with plaque bacteria (Sn^II conc. 6000 ppm) were 22%, 75% and 88%, respectively.

Values taken from patent EP0658565A1, “Oral products” (UNILEVER PLC, priority 1993, dated 1995).
